Data published in US20020146679A1, “Method for creating endothelial cell dysfunction in cell culture” (priority 2001, published 2002).
Several values for one entry are separate records, joined by “and”; a condition that tells them apart may be missing. Identical values can stand only once.

Test system: EA.hyb926 Endothelial Cells
Test: Gene expression by Affymetrix gene chip profiling
Assay type: cell-based, human
Method: Control cells were treated with vehicle for the same times and RNA isolated as above. Transcript integrity was monitored using denaturing agarose gel electrophoresis in 1X MOPS. Biotinylated target RNA was prepared from 15 μg of total RNA using the Affymetrix protocol. Briefly, double-stranded cDNA was prepared from the RNA template using a modified oligo-dT primer containing a 5′ T7 RNA polymerase promoter sequence and the Superscript Choice System for cDNA Synthesis (Life Technologies Inc., Gaithersburg, Md.). Following phenol-chloroform extraction and ethanol precipitation, one-half of the cDNA reaction (0.5-1.0 μg) was used as template in an in vitro transcription reaction containing T7 RNA polymerase, a mixture of unlabeled ATP, CTP, GTP, and UTP, and biotin-11-CTP and biotin-16-UTP (BioArray High Yield Kit, ENZO, Inc.). The resulting biotinylated-cRNA “target” was purified on an affinity resin (RNeasy, Qiagen) and quantified using the convention that 1 O.D. Two-hundred sixty corresponds to 40 μg/mL of RNA. Typical yields ranged from 50 to 100 μg with transcript sizes between […] as determined by gel electrophoresis. Fifteen micrograms of biotinylated cRNA was randomly fragmented to an average size of 50 nucleotides by incubating at 94° C. for 35 minutes in 40 mM TRIS-acetate, pH 8.1, 100 mM potassium acetate, and 30 mM magnesium acetate. The fragmented cRNA was hybridized in a solution containing 100 mM MES, 1 M [Na^+], 20 mM EDTA, 0.01% TWEEN 20, 50 pM of Control Oligonucleotide B2 (Affymetrix, Inc.), 0.1 mg/mL of sonicated herring sperm DNA, and 0.5 mg/mL BSA for 16 hours at 45° C. on a Human 6800 Affymetrix GeneChip. Each hybridization included a mixture of four bacterial biotinylated-RNA transcripts (BioB, BioC, BioD, and cre) spiked at 1.5, 5, 25, and 100 pM, respectively. The hybridization reactions were processed and scanned according to the standard Affymetrix protocols.
EA cells incubated with 10 ng/mL TNFα(with 5% FBS) for 6 hours (short-term) or 6 days (chronic exposure) were evaluated for identification of cytokine-responsive endothelial genes. […] In addition, ecNOS expression was reduced 4-fold from control, consistent with the western and northern blot data (FIGS. 6 and 7).

TNFα
ecNOS expression reduced from control (6 day TNFα treatment, 10 ng/mL with 5% FBS): 4 fold | Short- (6 hr Tx) Fold Increase: MCP-1 (TNFα 6 hr, accession HG4069): 4.5 Fold | Short- (6 hr Tx) Fold Increase: Type IV collagenase (TNFα 6 hr, accession J05070): 4.7 Fold | Short- (6 hr Tx) Fold Increase: GM-CSF (TNFα 6 hr, accession M13207): 23.0 Fold | Short- (6 hr Tx) Fold Increase: Vitronectin (TNFα 6 hr, accession M14648): 4.3 Fold | Short- (6 hr Tx) Fold Increase: RANTES (TNFα 6 hr, accession M21121): 39.5 Fold | Short- (6 hr Tx) Fold Increase: Interleukin-8 (TNFα 6 hr, accession M28130): 4.6 Fold | Short- (6 hr Tx) Fold Increase: TNF-Inducible, CD44 adhesion receptor (TNFα 6 hr, accession M31165): 2.7 Fold | Short- (6 hr Tx) Fold Increase: NFkB1 (p105) (TNFα 6 hr, accession M58603): 4.4 Fold | Short- (6 hr Tx) Fold Increase: A20: TNFα-inducible transcription factor (TNFα 6 hr, accession M59465): 6.5 Fold | Short- (6 hr Tx) Fold Increase: VCAM-1 (TNFα 6 hr, accession M60335): 32 Fold and 32.3 Fold | Short- (6 hr Tx) Fold Increase: ecNOS (NOS 3) (TNFα 6 hr, accession M93718, nc = no change from vehicle treated): did not affect | Short- (6 hr Tx) Fold Increase: HIF-1 α (TNFα 6 hr, accession U22431): 4.6 Fold | Short- (6 hr Tx) Fold Increase: VEGF C (TNFα 6 hr, accession U43142): 7.8 Fold | Short- (6 hr Tx) Fold Increase: Hiapl (TNFα 6 hr, accession U45878): 17.7 Fold | Short- (6 hr Tx) Fold Increase: Prointerleukin-1β (TNFα 6 hr, accession X04500): 42.2 Fold | Short- (6 hr Tx) Fold Increase: Manganese superoxide dismutase (TNFα 6 hr, accession X07834): 13.1 Fold | Short- (6 hr Tx) Fold Increase: Macrophage inflammatory protein2-β (TNFα 6 hr, accession X53800): 11.2 Fold | Short- (6 hr Tx) Fold Increase: Integrin, αV subunit (vitronectin receptor) (TNFα 6 hr, accession X68742): 4.3 Fold | Short- (6 hr Tx) Fold Increase: MT-MMP (TNFα 6 hr, accession X83535): 4.3 Fold | Chronic- (6 day Tx) Fold Increase: MCP-1 (TNFα 6 day, accession HG4069): 8.7 Fold | Chronic- (6 day Tx) Fold Increase: Type IV collagenase (TNFα 6 day, accession J05070): 27.2 Fold | Chronic- (6 day Tx) Fold Increase: Von Willebrand factor (TNFα 6 day, accession M10321): −8.3 Fold | Chronic- (6 day Tx) Fold Increase: GM-CSF (TNFα 6 day, accession M13207): 37.1 Fold | Chronic- (6 day Tx) Fold Increase: Vitronectin (TNFα 6 day, accession M14648): 6.8 Fold | Chronic- (6 day Tx) Fold Increase: RANTES (TNFα 6 day, accession M21121): 62.8 Fold | Chronic- (6 day Tx) Fold Increase: Interleukin-8 (TNFα 6 day, accession M28130): 32.6 Fold | Chronic- (6 day Tx) Fold Increase: TNF-Inducible, CD44 adhesion receptor (TNFα 6 day, accession M31165): 37.1 Fold | Chronic- (6 day Tx) Fold Increase: NFkB1 (p105) (TNFα 6 day, accession M58603): 2.9 Fold | Chronic- (6 day Tx) Fold Increase: A20: TNFα-inducible transcription factor (TNFα 6 day, accession M59465): 6.6 Fold | Chronic- (6 day Tx) Fold Increase: ecNOS (NOS 3) (TNFα 6 day, accession M93718): −3.9 Fold | Chronic- (6 day Tx) Fold Increase: TRAIL (TNFα 6 day, accession U37518): 4.8 Fold | Chronic- (6 day Tx) Fold Increase: VEGF C (TNFα 6 day, accession U43142): 27.1 Fold | Chronic- (6 day Tx) Fold Increase: Hiapl (TNFα 6 day, accession U45878): 6.9 Fold | Chronic- (6 day Tx) Fold Increase: Prointerleukin-1β (TNFα 6 day, accession X04500): 213.1 Fold | Chronic- (6 day Tx) Fold Increase: Manganese superoxide dismutase (TNFα 6 day, accession X07834): 63.4 Fold | Chronic- (6 day Tx) Fold Increase: Macrophage inflammatory protein2-β (TNFα 6 day, accession X53800): 40.6 Fold | Chronic- (6 day Tx) Fold Increase: Integrin, αV subunit (vitronectin receptor) (TNFα 6 day, accession X68742): 6.8 Fold | Chronic- (6 day Tx) Fold Increase: MCP-3 (TNFα 6 day, accession X72308): 19.9 Fold | Chronic- (6 day Tx) Fold Increase: CD95 (Fas) (TNFα 6 day, accession X83492): 4.3 Fold | Chronic- (6 day Tx) Fold Increase: MT-MMP (TNFα 6 day, accession X83535): 26.1 Fold | Chronic- (6 day Tx) Fold Increase: MCP-2 (TNFα 6 day, accession X99886): 131.7 Fold | increased expression of protective genes (superoxide dismutase, A-20, hiap-1, TRAIL, CD95) (TNFα exposure to EA cells): 4.3-17.7 fold | increases in expression of proinflammatory (proatherogenic) genes (chronic TNFα exposure (6 days)): 6.8-75.8 fold
